What was measured:
[1] = tested on: lipoprotein subclass particles (LDL, HDL, VLDL); assay: Lipoprotein subclass particle concentration and particle size by proton NMR in the 1-year open-label exenatide vs biphasic insulin aspart trial; type: in vivo, human; conditions: change from baseline to endpoint
Protocol: Lipoprotein subclass particle concentrations and average particle diameters are measured using proton nuclear magnetic resonance spectroscopy.
The particle concentrations of different lipoprotein subclasses are obtained by measuring the amplitudes of the characteristic lipid methyl NMR signals. The signal amplitudes of various subclasses are extracted from the overall lipid methyl group signal with a spectral deconvolution algorithm (LipoScience, Inc.). See e.g., Festa. VLDL and LDL particle concentrations are given in nanomoles per liter. HDL particle concentrations are provided in micromoles per liter.
Average particle sizes (in nanometers diameter) are computed as the sum of the diameter of the particle subclass multiplied by the relative mass percentage of the subclass as estimated from the amplitude of its methyl NMR signal.
Particle concentrations and sizes are compared before and after administration of an exendin or exendin agonist. See e.g., Table 1.

[2] = tested on: Fibrinogen; assay: Fibrinogen concentration by the von Clauss clotting method in the 1-year open-label exenatide vs biphasic insulin aspart trial; type: in vivo, human; conditions: patients with type 2 diabetes
Protocol: For test meal data, postprandial glucose incremental AUC0-4h is calculated at baseline and week 52.
Fibrinogen activity is measured by the von Clauss clotting method. By the von Clauss clotting method, thrombin is added to a test sample and the time until clotting is measured. Fibrinogen concentration is determined by comparing clotting time for the test sample to the clotting time of a standard curve for various reference plasmas.
Fibrinogen is measured at baseline, Week 16, Week 52, or at early termination of the study.

[3] = patients with type 2 diabetes, fasting
[4] = particle concentration, patients with type 2 diabetes

biphasic insulin aspart 30/70
LDL Particle Size Δ mean (SEM) ([1]; patients with type 2 diabetes inadequately controlled by sulphonylurea and metformin, fasting): +0.11 (0.12) p = .356 nm | HDL Particle Size Δ mean (SEM) [1, 3]: +0.04 (0.05) p = .391 nm | VLDL Particle Size Δ mean (SEM) [1, 3]: −1.6 (2.2) p = .482 nm | Large HDL Δ mean (SEM) [1, 4]: +1.0 (0.4) p = .014 μmol/L | Large LDL Δ mean (SEM) [1, 4]: +37.7 (32.8) p = .258 nmol/L | Small LDL Δ mean (SEM) [1, 4]: −25.8 (81.2) p = .753 nmol/L | Small VLDL Δ mean (SEM) [1, 4]: +8.5 (4.2) p = .049 nmol/L | Total HDL Δ mean (SEM) [1, 4]: +2.5 (0.9) p = .012 μmol/L | Total LDL Δ mean (SEM) [1, 4]: +5.0 (75) p = .947 nmol/L | Total VLDL Δ mean (SEM) [1, 4]: +12.9 (6.6) p = .056 nmol/L | Very Small LDL Δ mean (SEM) [1, 4]: −17.0 (64.6) p = .794 nmol/L | Fibrinogen level, Mean, Baseline ([2]; Baseline (before treatment) of the treatment group): 4.22 g/L | Fibrinogen level, Mean, Endpoint (LOCF) ([2]; Endpoint, last post-baseline measurement carried forward (Week 16, Week 52 or early termination)): 4.16 g/L
